Laboratory results as given in patent US9024017B2, “Octahydro-cyclopentapyrrolyl antagonists of CCR2” (Janssen Pharmaceutica NV, priority 2012, dated 2015).

Molecular target: T1, CCR2 (Homo sapiens, UniProt P41597)
T1 construct: host or cells: THP-1 (human monocytic cell line)
Experiment: MCP-1 Receptor Binding Assay in THP-1 Cells
Settings: read-out: MCP1B_v3 IC50
Experimental: Compounds of the invention were subjected to various representative biological tests. […] MCP-1 Receptor Binding Assay in THP-1 Cells Human monocytic cell line THP-1 cells were obtained from American Type Culture Collection (Manassas, Va., USA). The THP-1 cells were grown in RPMI-1640 (RPMI: Roswell Park Memorial Institute Medium-cell culture growth media) supplemented with 10% fetal bovine serum in a humidified 5% CO2 atmosphere at 37° C. The cell density was maintained between […].
THP-1 (cells were incubated with 0.5 nM ^125I labeled MCP-1 (Perkin-Elmer Life Sciences, Inc. Boston, Mass.) in the presence of varying concentrations of either unlabeled MCP-1 (R & D Systems, Minneapolis, Minn.) or test compound for 2 hours at 30° C. in a 96 well plate. Cells were then harvested onto a filter plate, dried, and 20 μL of Microscint 20 was added to each well. Plates were counted in a TopCount NXT, Microplate Scintillation & Luminescence Counter (Perkin-Elmer Life Sciences, Inc. Boston, Mass.). Blank values (buffer only) were subtracted from all values and drug treated values were compared to vehicle treated values. 1 μM cold MCP-1 was used for nonspecific binding.

T1 sequence (P41597 whole entry): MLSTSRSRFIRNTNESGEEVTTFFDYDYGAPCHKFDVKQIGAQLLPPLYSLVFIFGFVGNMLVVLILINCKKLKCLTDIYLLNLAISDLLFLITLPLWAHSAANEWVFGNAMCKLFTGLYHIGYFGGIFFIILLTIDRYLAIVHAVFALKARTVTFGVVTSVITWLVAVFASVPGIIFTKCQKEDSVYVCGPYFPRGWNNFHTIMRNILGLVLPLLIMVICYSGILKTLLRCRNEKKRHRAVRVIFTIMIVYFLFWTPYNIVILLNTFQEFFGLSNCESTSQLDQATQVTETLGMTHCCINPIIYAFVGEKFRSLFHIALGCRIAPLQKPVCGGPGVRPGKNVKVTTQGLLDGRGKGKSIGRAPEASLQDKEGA

IC50 [nM] | Compound
30 | COC1COCCC1N[C@@H]1C[C@H]2CN(C(=O)OCC3CCOCC3)C[C@@]2(C(=O)N2CCc3ncc(C(F)(F)F)cc3C2)C1 (relative stereo) [Example 47, (3aR,5R,6aR)-(Tetrahydro-2H-pyran-4-yl)methyl 5-(((3S*,4S*)-3-methoxytetrahydro-2H-pyran-4-yl)amino)-3a-(3-(trifluoromethyl)-5,6,7,8-tetrahydro-1,6-naphthyridine-6-carbonyl)hexahydrocyclopenta[c]pyrrole-2(1H)-carboxylate]
80 | COCCOC(=O)N1C[C@@H]2C[C@@H](NC3CCOCC3OC)C[C@]2(C(=O)N2CCc3ncc(C(F)(F)F)cc3C2)C1 (relative stereo) [Example 48, (3aR,5R,6aR)-2-Methoxyethyl 5-(((3S*,4S*)-3-methoxytetrahydro-2H-pyran-4-yl)amino)-3a-(3-(trifluoromethyl)-5,6,7,8-tetrahydro-1,6-naphthyridine-6-carbonyl)hexahydrocyclopenta[c]pyrrole-2(1H)-carboxylate]
10 | COCCOC(=O)N1C[C@@H]2C[C@@H](NC3CCOCC3OC)C[C@]2(C(=O)N2CCc3ccc(C(F)(F)F)cc3C2)C1 (relative stereo) [Example 49, (3aR,5R,6aR)-2-Methoxyethyl 5-(((3S*,4S*)-3-methoxytetrahydro-2H-pyran-4-yl)amino)-3a-(7-(trifluoromethyl)-1,2,3,4-tetrahydroisoquinoline-2-carbonyl)hexahydrocyclopenta[c]pyrrole-2(1H)-carboxylate]
30 | COC1COCCC1N[C@@H]1C[C@H]2CN(C(=O)OCCC(C)(C)O)C[C@@]2(C(=O)N2CCc3ccc(OC(F)(F)F)cc3C2)C1 (relative stereo) [Example 50, (3aR,5R,6aR)-3-Hydroxy-3-methylbutyl 5-(((3S*,4S*)-3-methoxytetrahydro-2H-pyran-4-yl)amino)-3a-(7-(trifluoromethoxy)-1,2,3,4-tetrahydroisoquinoline-2-carbonyl)hexahydrocyclopenta[c]pyrrole-2(1H)-carboxylate]
140 | COC1COCCC1N[C@@H]1C[C@H]2CN(C(=O)OCCC(F)(F)F)C[C@@]2(C(=O)N2CCc3ncc(C(F)(F)F)cc3C2)C1 (relative stereo) [Example 51, (3aR,5R,6aR)-3,3,3-Trifluoropropyl 5-(((3S*,4S*)-3-methoxytetrahydro-2H-pyran-4-yl)amino)-3a-(3-(trifluoromethyl)-5,6,7,8-tetrahydro-1,6-naphthyridine-6-carbonyl)hexahydrocyclo-penta[c]pyrrole-2(1H)-carboxylate]
130 | COC1COCCC1N[C@@H]1C[C@H]2CN(C(=O)OCCC#N)C[C@@]2(C(=O)N2CCc3ncc(C(F)(F)F)cc3C2)C1 (relative stereo) [Example 52, (3aR,5R,6aR)-2-Cyanoethyl 5-(((3S*,4S*)-3-methoxytetrahydro-2H-pyran-4-yl)amino)-3a-(3-(trifluoromethyl)-5,6,7,8-tetrahydro-1,6-naphthyridine-6-carbonyl)hexahydrocyclopenta[c]pyrrole-2(1H)-carboxylate]
200 | C#CCOC(=O)N1C[C@@H]2C[C@@H](NC3CCOCC3OC)C[C@]2(C(=O)N2CCc3ncc(C(F)(F)F)cc3C2)C1 (relative stereo) [Example 53, (3aR,5R,6aR)-Prop-2-yn-1-yl 5-(((3S*,4S*)-3-methoxytetrahydro-2H-pyran-4-yl)amino)-3a-(3-(trifluoromethyl)-5,6,7,8-tetrahydro-1,6-naphthyridine-6-carbonyl)hexahydrocyclopenta[c]pyrrole-2(1H)-carboxylate]
150 | COC1COCCC1N[C@@H]1C[C@H]2CN(C(=O)OCCN(C)C)C[C@@]2(C(=O)N2CCc3ncc(C(F)(F)F)cc3C2)C1 (relative stereo) [Example 54, (3aR,5R,6aR)-2-(Dimethylamino)ethyl 5-(((3S*,4S*)-3-methoxytetrahydro-2H-pyran-4-yl)amino)-3a-(3-(trifluoromethyl)-5,6,7,8-tetrahydro-1,6-naphthyridine-6-carbonyl)-hexahydrocyclopenta[c]pyrrole-2(1H)-carboxylate]
